# Values of other authors in patent US10500240B2, “Use of terminalia chebula extract for treatment of osteoarthritis” (Natreon, Inc., priority 2013, dated 2019).
# Tests used:
# [1] = tested on: 5-LOX
# [2] = tested on: HepG2 cells; settings: with doxorubicin
# [3] = molecular target: maltase; settings: reversible and non-competitive inhibitor; read-out: K(i) value, maltase
# [4] = tested on: COX-1
smiles,measurement,setting,value
"O=C(O)CC1C(=O)OC2C3COC(=O)c4cc(O)c(O)c(O)c4-c4c(cc(O)c(O)c4O)C(=O)OC2C(OC(=O)c2cc(O)c(O)c4c2C1C(O)C(=O)O4)C(OC(=O)c1cc(O)c(O)c(O)c1)O3 [Chebulagic acid, beta-1-O-galloyl-2,4-chebuloyl-3,6-(R)-hexahydroxydiphenoyl-D-glucose]",IC50,[1],2.1 ± 0.057 µM
same,enhanced the cytotoxicity of doxorubicin in HepG2 cells,[2],20 fold
same,Ki,[3],6.6 µM
same,IC50,[4],15 ± 0.288 µM
